Source: PubChem BioAssay AID977614 (Broad Institute, 2014)
Calls of active or inactive are those of the source.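 How the source made its calls: active means parasite count per well reduced by over 3 SD from the mean, with host cell number above 80% of untreated; inactive means the rest.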

System: L. donovani amastigotes in THP-1 macrophages, DAPI imaging, 72 h
Assay: antileishmanial activity in infected macrophages – imaging, THP-1 host macrophages, single concentration (AID 977614);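 further: signal is the parasite per host cell ratio from DAPI stained kinetoplasts and nuclei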

Row | SMILES | AC50
1 | O=C(Nc1ccc(Cl)cc1)N1C[C@@H]2[C@H](c3ccccc31)[C@H](CO)N2CC1CCCCC1 | > 10 µM (inactive)
2 | CCC(=O)N(C)C[C@@H]1[C@@H](c2ccccc2)[C@H](CO)N1Cc1cccnc1 | > 10 µM (inactive)
3 | COCC(=O)N1[C@H](CO)[C@@H]2c3ccccc3N(C(=O)Nc3ccccc3Cl)C[C@@H]21 | > 10 µM (inactive)
4 | OC[C@@H]1[C@H]2c3ccccc3NC[C@H]2N1Cc1ccccc1Cl | > 10 µM (inactive)
5 | CN(C)CC(=O)N1[C@@H](CO)[C@@H]2c3ccccc3N(C(=O)Cc3ccccc3)C[C@@H]21 | > 10 µM (inactive)
6 | COCC(=O)N1[C@@H](CO)[C@@H]2c3ccccc3NC[C@@H]21 | > 10 µM (inactive)
7 | O=C(c1ccccc1F)N1C[C@@H]2[C@H](c3ccccc31)[C@@H](CO)N2C(=O)Nc1ccccc1 | > 10 µM (inactive)
8 | CCN(C[C@H]1[C@@H](c2ccccc2)[C@H](CO)N1C(=O)COC)S(C)(=O)=O | > 10 µM (inactive)
9 | COCCN(C[C@H]1[C@H](c2ccccc2)[C@@H](CO)N1C(=O)C1CC1)C(C)=O | > 10 µM (inactive)
10 | C[C@H]1CN([C@@H](C)CO)C(=O)CCCn2cc(nn2)CO[C@H]1CN(C)C(=O)Nc1ccc2c(c1)OCO2 | > 10 µM (inactive)
11 | C/C=C/c1ccc([C@@H]2[C@H](CO)N(C(C)=O)[C@H]2CN(C(C)=O)C2CCCC2)cc1 | > 10 µM (inactive)
12 | CC(C)NC(=O)N1[C@H](CO)[C@@H](c2ccccc2)[C@@H]1CN(C)C(=O)c1cccnc1 | > 10 µM (inactive)
13 | OC[C@H]1[C@H]2c3ccccc3NC[C@H]2N1Cc1cccnc1 | > 10 µM (inactive)
14 | O=C(Nc1ccc(F)cc1)N1C[C@@H]2[C@H](c3ccccc31)[C@H](CO)N2Cc1ccccc1Cl | > 10 µM (inactive)
15 | O=C(Nc1ccc(F)cc1)N1C[C@H]2[C@@H](c3ccccc31)[C@@H](CO)N2C(=O)c1ccncc1 | > 10 µM (inactive)
16 | C[C@@H]1CN([C@H](C)CO)C(=O)CCCn2cc(nn2)CO[C@H]1CN(C)C(=O)Nc1cccc2ccccc12 | > 10 µM (inactive)
17 | C[C@@H]1CN([C@H](C)CO)C(=O)CCCn2nncc2CO[C@@H]1CN(C)C(=O)c1ccc(N2CCN(C)CC2)cc1 | > 10 µM (inactive)
18 | COc1ccccc1S(=O)(=O)N(C)C[C@@H]1OCc2cn(nn2)CCCC(=O)N([C@H](C)CO)C[C@@H]1C | > 10 µM (inactive)
19 | C[C@H](CO)N1C[C@H](C)[C@@H](CN(C)C(=O)c2ccc(N3CCN(C)CC3)cc2)OCc2cnnn2CCCC1=O | > 10 µM (inactive)
20 | Cc1noc(C)c1NC(=O)N(C)C[C@@H]1OCc2cn(nn2)CCCC(=O)N([C@H](C)CO)C[C@@H]1C | > 10 µM (inactive)
21 | COCCN(C[C@H]1[C@H](c2ccccc2)[C@H](CO)N1C(C)=O)C(=O)c1cccnc1 | > 10 µM (inactive)
22 | COCC(=O)N1[C@@H](CO)[C@@H]2c3ccccc3N(C(=O)Nc3ccccc3Cl)C[C@@H]21 | > 10 µM (inactive)
23 | O=C(Nc1ccc(F)cc1)N1C[C@H]2[C@@H](c3ccccc31)[C@H](CO)N2Cc1ccccc1Cl | > 10 µM (inactive)
24 | COCCN(C[C@@H]1[C@@H](c2ccccc2)[C@@H](CO)N1C(C)=O)C(=O)c1cccnc1 | > 10 µM (inactive)
25 | O=C(Nc1cccc(F)c1)N1C[C@H]2[C@@H](c3ccccc31)[C@@H](CO)N2C(=O)Cc1ccccn1 | > 10 µM (inactive)
26 | CC(=O)N1[C@H](CO)[C@H](c2ccccc2)[C@H]1CNC(=O)CN1CCOCC1 | > 10 µM (inactive)
27 | COc1ccc(CN(C)C[C@@H]2OCc3cnnn3CCCC(=O)N([C@H](C)CO)C[C@@H]2C)cc1 | > 10 µM (inactive)
28 | CN(C[C@H]1[C@H](c2ccccc2)[C@@H](CO)N1CC1CC1)C(=O)c1ccc(F)cc1 | > 10 µM (inactive)

Row | SMILES | AC50
29 | CN(C[C@@H]1N[C@H](CO)[C@H]1c1ccccc1)C(=O)c1ccccn1 | > 10 µM (inactive)
30 | CCC(=O)NC[C@H]1[C@@H](c2ccc(-c3ccc(C#N)cc3)cc2)[C@@H](CO)N1CCC(F)(F)F | > 10 µM (inactive)
31 | C[C@@H]1CN([C@@H](C)CO)C(=O)CCCn2nncc2CO[C@@H]1CN(C)S(=O)(=O)c1cn(C)cn1 | > 10 µM (inactive)
32 | COc1ccc(NC(=O)N(C)C[C@@H]2OCc3cnnn3CCCC(=O)N([C@H](C)CO)C[C@@H]2C)c(OC)c1 | > 10 µM (inactive)
33 | C[C@@H]1CN([C@@H](C)CO)C(=O)CCCn2nncc2CO[C@H]1CN(C)C(=O)Nc1cccc(Oc2ccccn2)c1 | > 10 µM (inactive)
34 | Cc1noc(C)c1S(=O)(=O)N(C)C[C@H]1OCc2cn(nn2)CCCC(=O)N([C@H](C)CO)C[C@@H]1C | > 10 µM (inactive)
35 | CCc1csc(N2[C@H](CO)[C@H](c3ccccc3)[C@@H]2CN(C)C(=O)C2CCC2)n1 | > 10 µM (inactive)
36 | CC(C)NC(=O)N1[C@@H]2CNc3ccccc3[C@@H]2[C@@H]1CO | > 10 µM (inactive)
37 | C[C@H]1CN([C@@H](C)CO)C(=O)CCCn2nncc2CO[C@@H]1CN(C)C(=O)Nc1ccccc1C(F)(F)F | > 10 µM (inactive)
38 | C[C@@H]1CN([C@H](C)CO)C(=O)CCCn2nncc2CO[C@@H]1CN(C)C(=O)Nc1ccccc1C(F)(F)F | > 10 µM (inactive)
39 | O=C(c1ccncc1)N1C[C@@H]2[C@H](c3ccccc31)[C@@H](CO)N2Cc1ccccc1F | > 10 µM (inactive)
40 | CN1C[C@H]2[C@@H](c3ccccc31)[C@H](CO)N2C(=O)C1CCOCC1 | > 10 µM (inactive)
41 | COCC(=O)N1[C@H](CO)[C@H]2c3ccccc3N(C(=O)Nc3ccccc3Cl)C[C@H]21 | > 10 µM (inactive)
42 | CCN(C[C@@H]1[C@@H](c2ccc(C3=CCCCC3)cc2)[C@@H](CO)N1CC1CC1)C(C)=O | > 10 µM (inactive)
43 | C[C@H]1CN([C@@H](C)CO)C(=O)CCCn2nncc2CO[C@H]1CN(C)C(=O)c1cc(-c2ccccc2)on1 | > 10 µM (inactive)
44 | Cc1noc(C)c1NC(=O)N(C)C[C@@H]1OCc2cnnn2CCCC(=O)N([C@H](C)CO)C[C@@H]1C | > 10 µM (inactive)
45 | C[C@H](CO)N1C[C@H](C)[C@@H](CN(C)C(=O)Nc2cccc3ccccc23)OCc2cn(nn2)CCCC1=O | > 10 µM (inactive)
46 | COc1ccc(CN(C)C[C@@H]2OCc3cnnn3CCCC(=O)N([C@H](C)CO)C[C@H]2C)cc1 | > 10 µM (inactive)
47 | C/C=C/c1ccc([C@H]2[C@H](CO)N(S(C)(=O)=O)[C@H]2CNCC2CCC2)cc1 | > 10 µM (inactive)
48 | O=C(Nc1ccccc1Cl)N1C[C@@H]2[C@H](c3ccccc31)[C@H](CO)N2C(=O)c1cccnc1 | > 10 µM (inactive)
49 | O=C(c1ccncc1)N1C[C@@H]2[C@H](c3ccccc31)[C@H](CO)N2C(=O)CN1CCOCC1 | > 10 µM (inactive)
50 | C[C@@H]1CN([C@H](C)CO)C(=O)CCCn2nncc2CO[C@H]1CN(C)C(=O)c1cc(-c2ccccc2)on1 | > 10 µM (inactive)
51 | CN1[C@@H]2CNc3ccccc3[C@@H]2[C@@H]1CO | > 10 µM (inactive)
52 | C/C=C/c1ccc([C@H]2[C@@H](CO)N(S(=O)(=O)CC)[C@@H]2CN(C)C(=O)CC)cc1 | > 10 µM (inactive)
53 | CCC(=O)N1[C@H](CO)[C@H](c2ccccc2)[C@H]1CN(CC)C(=O)c1cccc(F)c1 | > 10 µM (inactive)
54 | C[C@H](CO)N1C[C@H](C)[C@@H](CN(C)S(=O)(=O)c2ccc3c(c2)OCCCO3)OCc2cnnn2CCCC1=O | > 10 µM (inactive)
55 | C[C@@H]1CN([C@H](C)CO)C(=O)CCCn2cc(nn2)CO[C@@H]1CN(C)C(=O)Nc1cccc2ccccc12 | > 10 µM (inactive)
